Data set [1] is described as follows: Differential scanning calorimetry for thermal stability. To be noted: DSC, measure of thermal stability.
Method: Differential scanning calorimetry (DSC) was used to investigate the thermal stability as well as interaction between liposomes and entrapped protein.
For thermal stability analysis of liposomes and encapsulated protein, two mg of standard lipids, protein and liposome samples were loaded in aluminum pans along with the standard reference aluminum in the differential scanning calorimeter (Shimadzu DSC 60). The thermal profiles were recorded between 10° C. and 180° C. at a scan rate of 15° C./min for three cycles.
The conditions of data set [2]: oral, in the absence of decarboxylase inhibitors; cited from earlier work.
For data set [3] the following is noted: cited from earlier work.
Data set [4] in a line: L-DOPA oxidation in solution (UV-Vis, LC/MS). The format is physicochemical. How it is done: The solution was stored with minimal exposure to light. […] In order to accelerate the complete oxidation of L-DOPA starting material, the substance was reacted in at pH 10. […] These hydrophobic oxidation products were separated and collected for in vitro experiments with epithelialcells.
LC/MS analysis was performed using an LCQ Advantage Mass Spectrometer System with a Surveyor LC Pump and PDA Detector (Thermo Finnigan). Separations were performed on a 100 mm×3.0 mm Kinetex C18 column. Mobile phase was 0.1% formic acid in MeOH (B) balanced with water. […] Absorbance was monitored at 280 and 320 nm. For ESI-MS conditions, capillary temperature was 200° C. and spray voltage was set to 4.5 kV. […] Full spectra were collected between m/z range of 200-1000.

For the next data set, the system named is RPE cells. Conditions: 2.5 mg/ml; cited from earlier work.
Data set [5] in a line: Intravitreal drug release and toxicity in rabbit's eye (Fluorotron, ELISA, histopathology). The format is in vivo, Oryctolagus cuniculus (Dutch belted rabbits). To be noted: single intravitreal injection. How it is done: The efficacy of the liposomes and the combination product has been tested using rabbit models. The experimental design of this experiment involving Oryctolagus cuniculus (Dutch belted rabbits) was approved by the Northern Illinois University Institutional Animal Care and Use Committee (IACUC) and is as follows. Rabbits were divided into 4 groups and each rabbit was injected with the formulation in the right eye using left eye as control.
Drug release profiles in the rabbit's eye over a period of time was measured non-invasively using the Fluorotron. […] Light re-emitted (reflection and fluorescence) by the fluorescent tag on the protein is sampled from the 1.9×0.1 mm slit, aligned to the excitation and defined by an aperture Rd (which is confocal to Re). […] The configuration of these pupils is in the plane of the subject's pupil minimizes contributions from the fluorescence outside of the measurement point by separating the excitation and detection paths. Another band-pass filter rejects reflected excitation light, and the fluorescence collected by aperture Rd is detected using a red-extended end-on photomultiplier tube selected for low (<100 count/sec.) dark noise. As the focus lens is driven forward the emission signal is continuously monitored from retina to cornea, giving an intensity output. […]

For data set [6] the following is noted: cited from earlier work. The source holds these as a separate data set.
The next data set relates to ARPE-19 cells. The experiment in a line: MTT cell viability with Avastin and Avastin liposomes. It is filed as cell-based. Conditions: exposed to 2 mg of the antibody.

Method for ARPE-19 cells: ARPE-19 cells purchased from American Type Culture Collection were used. […] Cells were plated in 12-well plates with an initial seeding density of 5×10^4 cells per ml in each plate. Cells were grown to confluency for 4 days prior to experimentation; 12-well plates were used for MTT assays. 1.5 ml of 25 mg/ml Avastin solution was sterile filtered to create a stock solution that was transferred to a sterile centrifuge tube. Each well of the 12 well plate had its media aspirated out and was then rinsed with buffer which was also aspirated out. […] Enough media was added to each well to create a total volume of 1 ml in each well. […] 1.3 ml of 10% MTT 5 mg/ml in PBS and 11.7 ml of 90% media (with phenol red) was used. MTT in PBS was added to the media in a centrifuge tube and then sterile filtered. The filtered mixture was then plated on the 12 well plate (1 ml per well). The plate was then incubated for 90 minutes. After incubation, the MTT media was aspirated. 1 ml of DMSO per well was added. The MTT assay was read at 560 nm.

Regarding `CCCCCCCCCCCCCCCCCC(=O)OCC(COP(=O)(O)OCC(O)CO)OC(=O)CCCCCCCCCCCCCCCCC` (stereo not drawn) [DSPG], the “Melting temperature, Tm” value in data set [1] is reported as approximately 40° ° C.

As to `CCCCCCCC/C=C\CCCCCCCC(=O)OC[C@H](COP(=O)(O)OCCN)OC(=O)CCCCCCC/C=C\CCCCCCCC` [DOPE], in data set [1], the “Melting temperature, Tm” value is listed as approximately 63° ° C.

Consider `CCCCCCCCCCCCCC(=O)OC[C@H](COP(=O)([O-])OCC[N+](C)(C)C)OC(=O)CCCCCCCCCCCCC` [DMPC], for which, in data set [1], the “Melting temperature, Tm” value is recorded as approximately 42° ° C.

Turning to `N[C@@H](Cc1ccc(O)c(O)c1)C(=O)O` [L-DOPA], the “unmetabolized drug reaching the brain” value in data set [2] is given as “less than 1%”. In data set [3] (after 24 hr in neutral pH), the “drug oxidized to melanin” value is 47%. The drug oxidized entry in data set [3] (under basic conditions) is “at least 50.9%”. Moreover, the “oxidation of L-DOPA” value is given as “does not undergo complete oxidation” in data set [4] (PBS pH 7.4, after 3 days, minimal exposure to light); “substantial oxidation” in data set [4] (pH 7.4 solution, after 35 days); “completely consumed” in data set [4] (pH 10, after 24 hours).

On to `CC(C)CCC[C@@H](C)[C@H]1CC[C@H]2[C@@H]3CC=C4C[C@@H](O)CC[C@]4(C)[C@H]3CC[C@]12C` [Cholesterol], for which the “Melting temperature, Tm” value in data set [1] was approximately 154° ° C.

“Bevacizumab: anti-VEGF antibody, anti-angiogenic agent”: the “effect on RPE cells” value in the data set on RPE cells was “cytotoxic effects”. For the same compound, the “Time of release of a therapeutic concentrate” value in data set [5] worked out at 5 weeks. Further, the intravitreal half-life result in data set [6] (intravitreal) is listed as “about 4.32 days”. In addition, the “concentration in the vitreous” value in data set [6] (maintained over a period of 30 days) was “about 10 μg/ml”. For the same compound, the “cell viability (MTT)” value in the data set with ARPE-19 cells is listed as “decreased slightly”.

(Values after US20190307691A1, “HYDROGELS WITH LIPOSOMES FOR CONTROLLED RELEASE OF DRUGS” (NORTHERN ILLINOIS RESEARCH FOUNDATION, priority 2018, published 2019).)
